In patent publication US11691984B2, “Compounds and methods for DCAF-mediated protein degradation” (The Scripps Research Institute, priority 2018, dated 2023):

Target: T1, DCAF16 (Homo sapiens, UniProt Q9NXF7)
T1 construct: endogenously expressed DCAF16 in HEK293T cells; endogenous in cells; host or cells: HEK293T
Test: Competitive ABPP (TMT) of cysteine engagement in endogenous DCAF16
Assay type: cell-based
Conditions: HEK293T, 1.5 h
Description: HEK293T cells were treated with DMSO (four biological replicates), 2 μM KB02-SLF (three biological replicates) or 20 μM KB02-JQ1 (three biological replicates) for 1.5 h (ten samples in total). Cells were collected, washed once with PBS and lysed in PBS by sonication (40%, 4, 20 pulses). Samples were clarified by centrifugation for 10 min at 8,000 g. Lysate was adjusted to 1.0 mg/mL in 500 μL. Samples were labeled with 100 μM iodoacetamide alkyne (5 μL of 10 mM stock in DMSO) at room temperature for 1 hour, conjugated by CuACC to desthiobiotin azide (10 μL of 5 mM stock in DMSO, final concentration=100 tris(2-carboxyethyl)phosphine hydrochloride (TCEP, 10 μL of 50 mM stock in H2O, final concentration=1 mM), TBTA (30 μL of 1.7 mM stock in 4:1 tBuOH:DMSO, final concentration=100 μM) and CuSO4 (10 μL of 50 mM stock in H2O, final concentration=1 mM). The samples were allowed to react for 1 hour at room temperature. Proteins were precipitated by adding 3.5 mL of H2O, 4 mL of methanol and 1.5 mL of chloroform, followed by centrifugation at 5,000 g for 15 min (4° C.). After aspirating the top layer, the protein pellets with bottom layer were washed with 8 mL cold methanol by centrifugation at 5,000 g for 15 min (4° C.). Protein pellets were resuspended in 90 μL of buffer containing 9 M urea, 10 mM DTT and 50 mM tetramethylammonium bicarbonate (pH 8.5), sonicated (40%, 4, 5 pulses) and heated at 65° C. for 20 min. Samples were cooled to room temperature and alkylated with 50 mM iodoacetamide (10 μL of 500 mM stock in H2O) at 37° C. for 30 minutes. Samples were diluted with 350 μL of 50 mM tetramethylammonium bicarbonate (pH 8.5) and digested with 2 μg trypsin at 37° C. for 4 hours. 40 μL of streptavidin-agarose beads slurry was washed in immunoprecipitation (IP) washing buffer and added to each sample. Beads with peptide samples were rotated for 1 hour at room temperature, filtered off by micro Bio-Spin chromatography column (Bio-Rad) and washed with 1 mL of IP washing buffer (three times), 1 mL of PBS (three times) and 1 mL of H2O. Peptides were eluted by adding 300 μL of 50% acetonitrile with 0.1% of formic acid and dried in vacuum concentrator.
Peptides were resuspended in 100 μL of 30% acetonitrile in 200 mM EPPS (pH 8) and labeled with TMT10plex isobaric reagent following the manufacturer's instructions. 0.15% of hydroxylamine (3 μL of 5% stock in H2O) was added to each sample to quench the reaction (incubate for 15 minutes). After adding 5 μL of formic acid to each sample, 10 peptide samples were combined and dried in vacuum concentrator. […]
The samples were analyzed in Orbitrap Fusion Tribrid mass spectrometer (Thermo Scientific) coupled to UltiMate 3000 HPLC system (Thermo Scientific). […]

engagement of DCAF16 C119 (KB02-JQ1 20 μM) | engagement of DCAF16 peptide (aa 168-184) containing cysteines 173 and 177-179 (KB02-JQ1 20 μM) | SMILES | engagement of DCAF16 C119 (KB02-SLF 2 μM) | engagement of DCAF16 peptide (aa 168-184) containing cysteines 173 and 177-179 (KB02-SLF 2 μM)
no evidence of engagement | 40% | Cc1sc2c(c1C)C(c1ccc(Cl)cc1)=N[C@@H](CC(=O)NCCOCCOCCNC(=O)COc1ccc3c(c1)CCCN3C(=O)CCl)c1nnc(C)n1-2 [KB02-JQ1, (S)-2-((1-(2-chloroacetyl)-1,2,3,4-tetrahydroquinolin-6-yl)oxy)-N-(2-(2-(2-(2-(4-(4-chlorophenyl)-2,3,9-trimethyl-6H-thieno[3,2-f][1,2,4]triazolo[4,3-a][1,4]diazepin-6-yl)acetamido)ethoxy)ethoxy)ethyl)acetamide] |  | 
 |  | CCC(C)(C)C(=O)C(=O)N1CCCC[C@H]1C(=O)O[C@H](CCc1ccc(OC)c(OC)c1)c1cccc(NC(=O)CCOCCOCCNC(=O)COc2ccc3c(c2)CCCN3C(=O)CCl)c1 [KB02-SLF, (R)-1-(3-(3-(2-(2-(2-((1-(2-chloroacetyl)-1,2,3,4-tetrahydroquinolin-6-yl)oxy)acetamido)ethoxy)ethoxy)propanamido)phenyl)-3-(3,4-dimethoxyphenyl)propyl (S)-1-(3,3-dimethyl-2-oxopentanoyl)piperidine-2-carboxylate] | no evidence of engagement | ~10%
